Legend:
[1] = system: 6-OHDA unilateral lesion of the dopaminergic nigrostriatal pathway; assay: 6-Hydroxydopamine model (rotation); format: in vivo, Male Wistar mice
Procedure: 6-Hydroxydopamine (6-OHDA) is a neurotoxin which causes a unilateral lesion of the dopaminergic nigrostriatal pathway that induces hypersensitivity of the post synaptic dopaminergic receptor in the striatum of the lesioned side. An indirect acting compound like amphetamine is administered the mice rotate toward the lesioned side (ipsilateral) as opposed to when a direct acting dopaminergic drug is administered which causes then to rotate contra laterally. Therefore, this test can be used for the study of central dopamine function and the evaluation of dopamine antagonists and agonists, particularly the activity of novel anti-parkinsonian drugs. This test clearly distinguishes drugs with predominantly dopamine receptor agonist activity from those with predominantly dopamine releasing activity of the drug.
Procedure: Male Wistar […] weighing 200-250 grams at the time of surgery are used. They are housed individually in a controlled environment with free access to food and water. The animals are anaesthetized with sodium pentobarbital. The head is placed in a stereotaxic device (DKI 900) and positioned according to the atlas of Konig and Klippel. After a sagittal cut is made in the skin of the skull, a 2 mm wide hole is drilled with an electrical trepan drill. Care is taken not to lesion the meninges. A 30 gauge stainless-steel cannula connected to a Hamilton syringe is aimed at the anterior zona compacta of the substantia nigra (coordinates anterior 1.88 mm, lateral 2.0 mm and dorso-ventral—8.2 mm from instrument zero). A total of 8 μg of […] in 4 γ/L of saline is injected at a rate of 1 γ/L/min. After the intra-cranial injection, the wound is closed.
The animal is allowed several weeks for recovery and for development of the lesion. Specially constructed opaque plastic spheres attached to solid state programming equipment serve as test chambers. The number of full turns, either ipsilateral or contra lateral to the lesion, are recorded on an automatic printout counter every 15 min for one or two hours test sessions. To determine the control values for ipsilateral turning, each subject is administered 2.5 mg/kg of d amphetamine and immediately placed in the circling chamber for 2 hours Control values for contra lateral circling are determined by injecting apomorphine at 1 mg/kg s.c. and recording the rat's circling for 1 hour. Test compounds are given i.p or sc. And the animals placed into the circling chambers. Circling is recorded over a 1 hour period. This experiment is conducted in 30 animals and the average is represented in the table

[2] = system: oxotremorine induced tremors; assay: Oxotremorine antagonism (tremor, salivation, lacrimation scores); format: in vivo, NMRI mice
Procedure: Oxotremorine is a cholinergic drug which is a muscarine agonist and induces parkinsonism-like signs such as tremors, ataxia, spasticity, salivation, lacrimation and hypothermia. Oxotremorine is a cholinergic drug, which induces excessive tremors in mice. If a drug is having anti-cholinergic property like atropine the tremors will be decreased.
Procedure: Groups of 6-10 male NMRI mice weighing 18-22 g are used. They are dosed orally with the test compound or the standard (5 mg/kg benezatropine mesilate) 1 hour prior to the administration of 0.5 mg/kg oxotremorine. Tremor is scored after oxotremorine dosage in periods of 5 min for 1 hour.
After the administration of 0.5 mg/kg of Oxotremorine, the tremors started within 15 mins and were sustained for 30 mins.

[3] = system: Haloperidol induced catalepsy; assay: Haloperidol induced catalepsy in mice (bar test); format: in vivo, Swiss Albino mice
Description: Haloperidol is neuroleptic agent that blocks the Dopamine D2 receptor in the brain. This precipitates the extra-pyramidal side effects which can be measured by the “Bar Test for catalepsy in mice”. Catalepsy in mice is defined as a failure to correct an externally imposed unusual posture over a prolonged period of time. […] Haloperidol induced catalepsy can be reversed if dopaminergic drugs that supply dopamine to the striatum of the brain since it increase competitive antagonism.
Procedure: Swiss Albino mice of either sex weighing 23-28 g are used. Catalepsy was induced by Haloparidol (0.5 mg/kg i.p.) and assessed by bar test up to 3 hrs. Six animals are dosed with the saline, test drug and the standard intraperitonially. The animals are placed in translucent plastic boxes with a wooden dowel mounted horizontally 2.5 cm from the floor of the box. The animals are allowed to adapt to the box for 2 min. Then, each animal is grasped gently around the shoulders and under the forepaws and placed carefully on the dowel. The amount of the time spent with at least one forepaw on the bar is determined. When the animal removes its paws, the time is recorded and the mice are repositioned on the bar. Three trials are conducted for each animal at 30, 60, 120 and 360 min, with 6 animals in each group.

[4] = positive control 5 mg/kg and oxytremorine, n = 6

CN1CCc2cccc3c2[C@H]1Cc1ccc(O)c(O)c1-3 [Apomorphine]
Contra-lateral Rotation ([1]; Apomorphine 0.3 mg/kg): 169.33 | Ipsilateral Rotation ([1]; Apomorphine 0.3 mg/kg): 0.67

CN1[C@@H]2CC[C@H]1C[C@@H](OC(=O)C(CO)c1ccccc1)C2 (stereo partly shown) [Atropine]
decrease in severity of tremors ([2]; Atropine 1 mg/kg, FIG. 2): significant decrease in severity of tremors | Lacrimation score at 30 minutes ([2]; Atropine, dose not given): 0.6 | Salivation score at 30 minutes ([2]; Atropine, dose not given): 0.8 | Tremor score 5 minutes [2, 4]: 0.9 | Tremor score 15 minutes [2, 4]: 0.9 | Tremor score 30 minutes [2, 4]: 1.0 | Tremor score 45 minutes [2, 4]: 1.3

N[C@@H](Cc1ccc(O)c(O)c1)C(=O)O [L-Dopa, Dihydroxy Phenyl Alanine]
reduction of catalepsy ([3]; L-DOPA (10)+Hal (0.5) compared with Hal (0.5) at respective time, FIG. 1): significant at P<0.001 | reducing catalepsy, standard versus test drug ([3]; L-Dopa 10 mg/kg compared with test drug 100 mg/kg): more effective than the test drug at a dosage of 100 mg/kg | Contra-lateral Rotation ([1]; L-Dopa 10 mg/kg): 45.67 | Ipsilateral Rotation ([1]; L-Dopa 10 mg/kg): 0.83

Source: patent US9149469B2, “Pharmaceutical composition and a process thereof” (INDUS Biotech PVT. Ltd., priority 2007, dated 2015)
